The text below walks through data of patent US20180214428A1, “3-(1H-INDOL-2-YL)-1H-PYRAZOLO[3,4-B]PYRIDINES AND THERAPEUTIC USES THEREOF” (Samumed, LLC, priority 2015, published 2018).

Broadly, the EC50 is the concentration needed to bring the measured effect to its halfway point.

For test [1], the system named is primary human fibroblasts derived from IPF patients (LL29 cells). Briefly: Inhibition of the fibrotic process: αSMA staining in TGF-β1 treated LL29 fibroblasts. In kind it is cell-based. As to conditions: Homo sapiens, Fibroblast, 96 h, TGF-β1 20 ng/mL, 4 days, % αSMA positive cells. An excerpt: Representative compounds were screened using primary human fibroblasts (derived from IPF patients) treated with TGF-β1 to determine their ability to inhibit the fibrotic process.
Primary human fibroblasts derived from IPF patients (LL29 cells) [^1Xiaoqiu Liu, et. al., “Fibrotic Lung Fibroblasts Show Blunted Inhibition by cAMP Due to Deficient cAMP Response Element-Binding Protein Phosphorylation”, Journal of Pharmacology and Experimental Therapeutics (2005), 315(2), 678-687; ^2Watts, K. L., et. al., “RhoA signaling modulates cyclin D1 expression in human lung fibroblasts; implications for idiopathic pulmonary fibrosis”, Respiratory Research (2006), 7(1), 88] were obtained from American Type Culture Collection (ATCC) and expanded in F12 medium supplemented with 15% Fetal Bovine Serum and Penicillin/Streptomycin.
Each compound was dissolved in DMSO as a 10 mM stock and used to prepare compound source plates. Serial dilution (1:2, 11-point dose-response curves from 10 μM to […]) and compound transfer was performed using the ECHO 550 (Labcyte, Sunnyvale, Calif.) into 384-well clear bottom assay plates (Greiner Bio-One) with appropriate DMSO backfill for a final DMSO concentration of 0.1%. LL29 cells are plated at 1,500 cells/well in 80 μL/well F12 medium supplemented with 1% Fetal Bovine Serum. One hour after addition of the cells, TGF-01 (Peprotech; 20 ng/mL) was added to the plates to induce fibrosis (ref. 1 and 2 above). Wells treated with TGF-β1 and containing DMSO were used as controls. Cells were incubated at 37° C. and 5% CO2 for 4 days. Following incubation for 4 days, SYTOX green nucleic acid stain (Life Technologies [Thermo Fisher Scientific]) was added to the wells at a final concentration of 1 μM and incubated at room temperature for 30 min. Cells were then fixed using 4% formaldehyde (Electron Microscopy Sciences), washed 3 times with PBS followed by blocking and permeabilization using 3% Bovine Serum Albumin (BSA; Sigma) and 0.3% Triton X-100 (Sigma) in PBS. Cells were then stained with antibody specific to α-smooth muscle actin (aSMA; Abcam) (ref. 1 and 2 above) in 3% Bovine Serum Albumin (BSA; Sigma) and 0.3% Triton X-100 (Sigma) in PBS, and incubated overnight at 4° C. Cells were then washed 3 times with PBS, followed by incubation with Alexa Flor-647 conjugated secondary antibody (Life Technologies [Thermo Fisher Scientific]) and DAPI at room temperature for 1 hour. Cells were then washed 3 times with PBS and plates were sealed for imaging. αSMA staining was imaged by excitation at 630 nm and emission at 665 nm and quantified using the Compartmental Analysis program on the CellInsight CX5 (Thermo Scientific). Dead or apoptotic cells were excluded from analysis based on positive SYTOX green staining. % of total cells positive for aSMA were counted in each well and normalized to the average of 11 wells treated with TGF-01 on the same plate using Dotmatics' Studies Software. The normalized averages (fold change over untreated) of 3 replicate wells for each compound concentration were used to create dose-responses curves and EC50 values were calculated using non-linear regression curve fit in the Dotmatics' Studies Software. For EC50 of >10 μM, the percent inhibition at 10 μM is provided.

A further test deals with IL-6. Nature of the test: IL-6 inhibition in LPS-stimulated THP-1 monocytes (HTRF). In kind it is cell-based, human. As to conditions: Homo sapiens; THP-1 cells, 500 ng/mL LPS, 22 h, HTRF IL-6 readout; 10-point dose-response from 10 μM. The method, then:
Human monocyte cell line (THP-1 cells; Catalog # TIB-202, ATCC, Manassas, Va.) were cultured in Roswell Park Memorial Institute (RPMI) 1640 Medium (Catalog #21870-100, Buffalo, N.Y.) with 1% L-glutamine, 1% HEPES, 1% Sodium Pyruvate, 2% Sodium Bicarbonate supplemented with 100 units/mL penicillin, 50 μg/mL streptomycin, 2-mercaptoethanol (0.05 mM) [basal medium] and 10% fetal bovine serum (Catalog #16140089, Life Technologies, Carlsbad, Calif.) at 37° C. and 5% CO2.
THP-1 cells were cultured in basal media with 1% FBS for 24 hours before the start of the assay. Each compound was dissolved in DMSO as a 10 mM stock and used to prepare compound source plates. Serial dilution (1:3, 10-point dose-response curves starting from 10 μM) and compound transfer was performed using the ECHO 550 (Labcyte, Sunnyvale, Calif.) into 384-well white low volume assay plates (Greiner Bio-One) with appropriate DMSO backfill for a final DMSO concentration of 0.1%. THP-1 cells were plated at 5000 cells/well in the 384-well plates and incubated at 37° C. for 2 h. 500 ng/mL of LPS was added after 2 hours and cells were incubated for another 22 hours at 37° C. Plates were spun in a centrifuge for 1 minute at […] and a mixture of anti-IL6 XL665, and anti-IL6 Cryptate diluted in reconstitution buffer (Cisbio Inc.) was added to each well. Following incubation for 3 hrs at room temperature, Homogeneous Time-Resolved Fluorescence (HTRF) was measured using the Envision (Perkin Elmer) at 665 nm and […]. The ratio of fluorescence at 665 nm to 620 nm was used as a readout for IL6 quantification. All samples were processed in duplicate. Readings were normalized to DMSO treated cells and normalized activities were utilized for EC50 calculations using the dose-response log (inhibitor) vs. response variable slope (four parameters) nonlinear regression feature available in GraphPad Prism 5.0 (or Dotmatics). For EC50 of >10 μM, the percent inhibition at 10 μM is provided.
On the technique in general: TR-FRET usually uses a lanthanide donor and a delayed reading to cut background.

For test [2], the system named is Wnt activity (Sp5-Luc reporter gene, SW480 colon carcinoma cells). Nature of the test: Screening assay for Wnt activity: Sp5-Luc reporter gene assay in SW480 cells. As to conditions: Homo sapiens, overnight incubation. In kind it is cell-based, human. From the text: The screening assay for Wnt activity is described as follows. Reporter cell lines can be generated by stably transducing cancer cell lines (e.g., colon cancer) or primary cells (e.g., IEC-6 intestinal cells) with a lentiviral construct that includes a Wnt-responsive promoter driving expression of the firefly luciferase gene.
SW480 colon carcinoma cells were transduced with a lentiviral vector expressing luciferase with a human Sp5 promoter consisting of a sequence of eight TCF/LEF binding sites. SW480 cells stably expressing the Sp5-Luc reporter gene and a hygromycin resistance gene were selected by treatment with 150 μg/mL of hygromycin for 7 days. These stably transduced SW480 cells were expanded in cell culture and used for all further screening activities. Each compound was dissolved in DMSO as a 10 mM stock and used to prepare compound source plates. Serial dilution (1:3, 10-point dose-response curves starting from 10 μM) and compound transfer was performed using the ECHO 550 (Labcyte, Sunnyvale, Calif.) into 384-well white solid bottom assay plates (Greiner Bio-One) with appropriate DMSO backfill for a final DMSO concentration of 0.1%. For Sp5-Luc reporter gene assays, the cells were plated at 4,000 cells/well in 384-well plates with medium containing 1% fetal bovine serum and incubated overnight at 37° C. and 5% CO2. Following incubation, 20 μl of BrightGlo luminescence reagent (Promega) was added to each well of the 384-well assay plates. The plates were placed on an orbital shaker for 2 min and then luminescence was quantified using the Envision (Perkin Elmer) plate reader. Readings were normalized to DMSO only treated cells, and normalized activities were utilized for EC50 calculations using the dose-response log (inhibitor) vs. response variable slope (four parameters) nonlinear regression feature available in GraphPad Prism 5.0 (or Dotmatics). For EC50 of >10 μM, the percent inhibition at 10 μM is provided.
In general terms: In a reporter assay the amount or activity of a reporter protein is the signal.

The next test concerns SW480 colon cancer cells. Briefly: Cell viability assay (CellTiter-Blue) in SW480 colon cancer cells. Format: cell-based, human. As to conditions: Homo sapiens, 96 h, four days, CellTiter-Blue. On the procedure: Representative compounds were screened using the following assay procedure to assess the effect on cell viability as described below.
Each compound was dissolved in DMSO as a 10 mM stock and used to prepare compound source plates. Serial dilution (1:3, 8-point dose-response curves from 10 μM to 0.0045 μM) and compound transfer was performed using the ECHO 550 (Labcyte, Sunnyvale, Calif.) into 96-well clear bottom, black-walled plates (Corning-Costar).
Approximately 2×10^3 SW480 colon cancer cells were seeded into each well and allowed to incubate in the presence or absence of compound for four days at 37° C./5% CO2. Eight replicates of DMSO-treated cells served as controls and cells treated with compound were performed in duplicate.
After incubation, 20 μL of CellTiter-Blue (Promega) was added to each well allowed to incubate for approximately 3 hours. This reagent was a buffered solution which contains resazurin, metabolically active cells were able to reduce rezarurin (blue) into resorufin (pink) which was highly fluorescent. This measured fluorescence was used as a readout for cell viability.
After incubation, the plates were read at Ex 560 nm Em 590 nm (Cytation 3, BioTek). Dose-response curves were generated and EC50 concentration values were calculated using non-linear regression curve fit in the GraphPad Prism (San Diego, Calif.) or Dotmatics' Studies Software (Bishops Stortford, UK). For EC50 of >10 μM, the percent inhibition at 10 μM is provided.
Background: The colour change of resazurin is a common sign of viable cells or microbes.

Turning to `CN(C)Cc1cncc(-c2cnc3[nH]nc(-c4cc5c(-c6cccc(F)c6)cccc5[nH]4)c3c2)c1` [Compound 10, 1-(5-(3-(4-(3-Fluorophenyl)-1H-indol-2-yl)-1H-pyrazolo[3,4-b]pyridin-5-yl)pyridin-3-yl)-N,N-dimethylmethanamine], the EC50 in test [1] came out at 4390 nM; in the test with IL-6, 1560 nM; in test [2], 1060 nM; with SW480 colon cancer cells, 3440 nM.
In the same order, the values of `CC(C)Nc1cncc(-c2cnc3[nH]nc(-c4cc5c(-c6ccccc6F)cccc5[nH]4)c3c2)c1` [Compound 57, 5-(3-(4-(2-Fluorophenyl)-1H-indol-2-yl)-1H-pyrazolo[3,4-b]pyridin-5-yl)-N-isopropylpyridin-3-amine] are 411 nM, 753 nM, 371 nM and 1820 nM.
Taken in the same sequence, the figures for `CCCCC(=O)Nc1cncc(-c2cnc3[nH]nc(-c4cc5c(-c6ccccc6F)cccc5[nH]4)c3c2)c1` [Compound 64, N-(5-(3-(4-(2-Fluorophenyl)-1H-indol-2-yl)-1H-pyrazolo[3,4-b]pyridin-5-yl)pyridin-3-yl)pentanamide] were 1770 nM, 3280 nM, 796 nM and 3880 nM.
Taken in the same sequence, the figures for `CCCC(=O)Nc1cncc(-c2cnc3[nH]nc(-c4cc5c(-c6ccncc6)cccc5[nH]4)c3c2)c1` [Compound 110, N-(5-(3-(4-(Pyridin-4-yl)-1H-indol-2-yl)-1H-pyrazolo[3,4-b]pyridin-5-yl)pyridin-3-yl)butyramide] were 2070 nM, 45 nM, 365 nM and 2260 nM.
Take `CCC(=O)Nc1cncc(-c2cnc3[nH]nc(-c4cc5c(N6CCCCC6)cccc5[nH]4)c3c2)c1` [Compound 145, N-(5-(3-(4-(Piperidin-1-yl)-1H-indol-2-yl)-1H-pyrazolo[3,4-b]pyridin-5-yl)pyridin-3-yl)propionamide]: the EC50 was found to be 1410 nM in test [1], 2640 nM in the test on IL-6, 290 nM in test [2] and 3670 nM with SW480 colon cancer cells.
Taken in the same sequence, the figures for `Nc1cncc(-c2cnc3[nH]nc(-c4cc5c(N6CCCCC6)cccc5[nH]4)c3c2)c1` [Compound 147, 5-(3-(4-(Piperidin-1-yl)-1H-indol-2-yl)-1H-pyrazolo[3,4-b]pyridin-5-yl) pyridin-3-amine] were 620 nM, 213 nM, 154 nM and 1050 nM.
In the same order, the values of `CN(C)Cc1cncc(-c2cnc3[nH]nc(-c4cc5c(N6CCCCC6)cccc5[nH]4)c3c2)c1` [Compound 157, N,N-Dimethyl-1-(5-(3-(4-(piperidin-1-yl)-1H-indol-2-yl)-1H-pyrazolo[3,4-b]pyridin-5-yl)pyridin-3-yl)methanamine] are 1230 nM, 2310 nM, 1460 nM and 1860 nM.
In the same order, the values of `O=C(Nc1cncc(-c2cnc3[nH]nc(-c4cc5c(N6CCCCC6)cccc5[nH]4)c3c2)c1)C1CC1` [Compound 164, N-(5-(3-(4-(piperidin-1-yl)-1H-indol-2-yl)-1H-pyrazolo[3,4-b]pyridin-5-yl)pyridin-3-yl)cyclopropanecarboxamide] are 4330 nM, 1190 nM, 1080 nM and 9940 nM.
As to `Cc1ccncc1-c1cnc2[nH]nc(-c3cc4c(N5CCN(C)CC5)cccc4[nH]3)c2c1` [Compound 205, 3-(4-(4-Methylpiperazin-1-yl)-1H-indol-2-yl)-5-(4-methylpyridin-3-yl)-1H-pyrazolo[3,4-b]pyridine], the EC50 in test [1] was 2560 nM; in the test on IL-6 it was 477 nM; in test [2], 3420 nM; in the test on SW480 colon cancer cells, 3270 nM.
